Source: EP4289427A1, “DIHYDRO[1,8]NAPHTHYRIDIN-7-ONE AND PYRIDO[3,2-B][1,4]OXAZIN-3-ONE FOR USE IN TREATING CANCER, AND METASTASES IN PARTICULAR” (Anagenesis Biotechnologies, priority 2022, dated 2023)

Experiments:
[1] = test system: RD cells; experiment: Cytotoxicity assay (CellTiter-Glo 2.0) on RD cells; format: cell-based, Human; settings: for IC50: Homo sapiens
Outline: (§1)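 Compound-treated cells, incubation time varying by line; CellTiter-Glo 2.0 ATP luminescence; relative IC50.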

[2] = test system: 4T1 cells; experiment: Cytotoxicity assay (CellTiter-Glo 2.0) on 4T1 cells; format: cell-based, Mouse; settings: incubation 2 days
Outline: as §1

[3] = test system: MDA-MB-231 cells; experiment: Cytotoxicity assay (CellTiter-Glo 2.0) on MDA-MB-231 cells; format: cell-based, Human; settings: incubation 3 days
Outline: as §1

[4] = test system: EoL-1 cells; experiment: Cytotoxicity assay (CellTiter-Glo 2.0) on EoL-1 cells; format: cell-based, Human; settings: incubation 1 day
Outline: as §1

[5] = test system: HUVECs; experiment: Tube formation assay (anti-angiogenic activity); format: cell-based, human; settings: incubation 16 to 18 hours
Outline: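 HUVECs plated at 5000 cells/well on reduced growth factor basement membrane matrix, then exposed to compounds for 16 to 18 hours at 37°C. Cells stained with calcein-AM; tube networks imaged by confocal fluorescence microscopy and quantified.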

[6] = test system: MDA-MB-231 cells; experiment: Scratch (wound healing) assay, cell migration; format: cell-based, Human; settings: 24 hours, Figure 1
Method: Cell migration is involved in several pathological cancer processes such as tumor invasion, neoangiogenesis and metastasis. Scratch (or wound healing) assay is a method to study two-dimensional cell migration in vitro. It is based on the observation that cells growing in a monolayer migrate to reestablish cell contacts after a mechanical scratch wound.
The MDA-MB-231 cells were seeded into a 24-well plate and grown to confluent density. A scrape was made in each well using a pipette tip. Then, the cells monolayers were incubated for 2 hours with 5 µg/ml mitomycin C to stop cell proliferation. The cells were treated with the compounds to be tested for 24 hours. The cells were stained using CellMask Green actin tracking stain (cat.no. A57246 from Fisher Scientific) at time zero and at endpoint. Pictures were acquired using a fluorescence microscope (IXM from Molecular Device). The scratch area was measured with the ImageJ software. The recovery of the scratch area was calculated as a percentage of the scratch area at time zero.

[7] = test system: 4T1 cells; experiment: Epithelial-mesenchymal transition marker expression by qRT-PCR; format: cell-based, Mouse; set-up: key: ↗: increased expression; ↘: decreased expression; =: unchanged expression levels; settings: 24 hours, expression normalized against RPL13
Outline: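 Compound or DMSO applied to 4T1 cells for 24 h; total RNA (500 ng) reverse-transcribed and EMT markers quantified by SYBR Green qPCR. Expression normalized to housekeeping gene RPL13.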

[8] = test system: 4T1 cells; experiment: Colony forming (clonogenic) assay; format: cell-based, Mouse; settings: 6 days of treatment, Figure 2
Method: Cancer stem cells are characterized by their ability to undergo virtually unlimited divisions. Colony forming assay (or clonogenic assay) is an in vitro assay designed to assess capability of single cells to grow into large colonies through clonal expansion.
4T1 cells were seeded at a density of 500 cells per well of six-well plates in 4T1 medium. Compounds to be tested were added 24 hours after seeding. After 6 days of treatment, the cells were fixed in 4% PFA and stained with 1% aqueous solution of crystal violet. Pictures of the entire wells were acquired, and the area of the positives colonies was evaluated by ImageJ software (Wayne Rasband; NIH).

[9] = test system: RD cells; experiment: Differentiation of RD cells into myotubes (alpha-actinin staining); format: cell-based, Human; settings: 7 days, Figure 3
Method: RD cells are cancer cells of muscle origin that arose from myogenic precursors that fail to complete muscle differentiation. One strategy to stop their progression is to differentiate them into myotubes.
To allow differentiation, RD cells were seeded at a density of 3500 cells/well in a 384-well plate coated with collagen type I, in DMEM (4,5g/L glucose) with L-Gln (cat.no. 41965-039 from Gibco) supplemented with 5% of knockout serum replacement (cat.no. 10828-028 from Gibco), 1% PenStrep (Gibco), 1% MEM NEAA (Gibco) and 0.1 mM 2-mercaptoethanol (Gibco) (hereafter "K5 medium"). Compounds to be tested were then added onto the cells and incubated for 7 days at 37°C. On day 7, cells were fixed with 4% paraformaldehyde solution and immunostained for α-actinin (cat.no. EA-53 from Sigma, at 1/30000).

[10] = test system: Src kinase family; experiment: Human phospho-kinase array in RD cells; format: cell-based; settings: 1 hour at its IC50, Figure 4
Method: Inhibition of kinases can be observed by quantifying both their phosphorylation levels and the phosphorylation level of downstream proteins in their pathways.
RD cells were cultured in vitro and expanded for 4 days prior to the experiments (see example 3.1 and table 6a for details). The assay was performed using the human phospho-kinase array kit (cat.no. ARY003C from R&D Systems), according to the manufacturer's instructions. The RD cells were treated with compound #032 for 1 hour at its IC50 (previously defined) and lysed with lysis buffer supplemented with aprotinin, leupeptin and pepstatin. The total protein extract was titrated using a micro-BCA kit (cat. no. 23235 from Thermofisher Scientific). The array membranes were blocked and incubated overnight at 4 °C with 500 µg of total protein. Then, the detection antibodies were added for 2 hours followed by the HRP-conjugated Streptavidin solution for 30 minutes. The chemiluminescent signal was finally developed by incubating the membranes with the chemi-reagent mix and placed in the Fusion-FX acquisition system (Vilber Instruments). Data were analyzed using ImageJ software (Wayne Rasband; NIH).

CSc1cc(Oc2ccnc3c2CCC(=O)N3)ccc1NC(=O)Nc1cc(C(C)(C)C)nn1-c1ccc(C)nc1 [Compound 032, 1-[5-tert-butyl-2-(6-methyl-3-pyridyl)pyrazol-3-yl]-3-[2-methylsulfanyl-4-[(7-oxo-6,8-dihydro-5H-1,8-naphthyridin-4-yl)oxy]phenyl]urea]
Cytotoxicity ([1]; 2 day-treatment): ++ (50% ≤ cytotoxicity < 85%)
Cytotoxicity ([1]; 4 day-treatment): +++ (cytotoxicity ≥ 85%)
IC50 ([1]; 48 h, 2 day-treatment): 1000 to 5000 nM
IC50 ([1]; 96 h, 4 day-treatment): 1000 to 5000 nM
IC50 ([2]; Mus musculus, 48 h): < 1000 nM
Cytotoxicity [2]: +++ (cytotoxicity ≥ 85%)
IC50 ([3]; Homo sapiens, 72 h): < 1000 nM
Cytotoxicity [3]: ++ (50% ≤ cytotoxicity < 85%)
IC50 ([4]; Homo sapiens, EOL1, 24 h): 1 to 10 nM
Cytotoxicity [4]: +++ (cytotoxicity ≥ 85%)
IC50 ([5]; Homo sapiens, HUVEC): < 100 nM
Angiogenesis inhibition [5]: +++ (angiogenesis inhibition ≥ 80%)
migration in the scratch assay [6]: inhibition of their migration
Epithelial markers E-cadherin [7]: ↗
Epithelial markers EpCAM [7]: ↗
Mesenchymal markers Fibronectin [7]: =
Mesenchymal markers Vimentin [7]: ↘
colony growth [8]: inhibition of colony growth
differentiation into myotubes [9]: dose-dependent differentiation into myotubes
phosphorylation of members of the Src kinase family and their downstream proteins [10]: decreased phosphorylation
